The text below walks through data of US9303076B2, “Cell-penetrating peptides and uses thereof” (Hoffmann-La Roche Inc., priority 2010, dated 2016).

For data set [1], the system named is MCF-7 human breast cancer cells. Put plainly: cell viability/apoptosis after 24 h exposure to pro-apoptotic peptides and CPP fusions. The class given is cell-based. To be noted: MCF-7 cells; for cell viability / cytotoxicity due to induction of apoptosis: 20 μM; for cell viability / induction of apoptosis: various concentrations. As to the method: MCF-7 human breast cancer cells were incubated for 24 h in the presence of various concentrations of NRTN (squares), Nur (circles), and NurNRTN (triangles) peptides. The respective amino acid sequences are given in the bottom panel. The experimental approach for assessing cell viability (and thus induction of apoptosis) was the same as in FIG. 3.
MCF-7 human breast cancer cells were incubated for 24 h in the presence of various concentrations of 4E-BP1 (circles), TAT4E-BP1 (squares), and NRTN4E-BP1 (triangles) peptides (top panel). […] The respective amino acid sequences are given in the bottom panel. The experimental approach for assessing cell viability (and thus induction of apoptosis) was the same as in FIG. 3.
Luminescence was analyzed in an InfiniteF200 luminescence reader.
Then, the cells were treated with a luminogenic peptide substrate in order to measure dead-cell protease activity, which is released from cells that have lost membrane integrity. […] The luminescence of this assay therefore represents dead cells. The 96 well plates were then analyzed in an InfiniteF200 luminescence reader.
Despite its proven ability to convert BCL-2 into a pro-apoptotic molecule, addition of the latter peptide (i.e. “Nor/Nur”; SEQ ID NO: 72) to cancer cells, even in high concentrations, is not sufficient to induce apoptosis, as the cellular target protein is located in the cytoplasm, but the peptide per se cannot effectively penetrate through the cell membrane to reach the target. In brief, MCF-7 breast cancer cells were incubated in the presence of this peptide for 24 h.
Subsequently, it was evaluated whether the NurNRTN fusion peptide is capable of penetrating cellular membranes and thereby induces pro-apoptotic activity within cells. MCF-7 human breast cancer cells were used as a model. The experimental approach was as described above (cf. Example 1). […] This effect was dose dependent: cytotoxicity increased with increasing concentrations of peptide.
Subsequently, it was evaluated whether the NRTN4E-BP1 fusion peptide is capable of penetrating cellular membranes and thereby induces pro-apoptotic activity within cells. MCF-7 human breast cancer cells were used as a model. The experimental approach was as described above (cf. Example 1). […] This effect was dose dependent: cytotoxicity increased with increasing concentrations of peptide.

Data set [2] concerns MCF7 cells. The data set is described as follows: growth inhibition/toxicity (CellTiter-Glo viability, GAPDH mRNA levels). As to conditions: MCF7 cells; peptide 1 μM to 20 μM. A general note: In ATP-based viability assays light output follows the ATP content of the culture.
Protocol: MCF7 cells were seeded at a density of 15.000 cells per well in 96 well plates. The cells were incubated for 24 hours at 37° C., 5% CO2 and 85% humidity in RPMI 1640 medium supplemented with 10% FCS (fetal calf serum) and L-glutamine. For functional assays, the cells were washed in OptiMEM medium and RPMI 1640 was replaced with OptiMEM (all reagents were purchased from Invitrogen Corporation, Carlsbad, Calif., USA). Complexes of siRNAs and peptides were formed by incubation of 100 nM siRNA with the indicated peptide concentrations in OptiMEM for 30 minutes at room temperature. The complexes were added to the cells and incubated for 3 hours. Subsequently, OptiMEM was replaced with normal RPMI 1640 growth medium. The cells were incubated for further 21 hours for generating bDNA lysates, and for further 45 hours for performing CellTiter-Glo or CytoTox-Glo assays (cf. below).
In order to measure the number of living cells the CellTiter-Glo Luminescent Cell Viability Assay (Promega Corporation, Madison, Wis., USA) was used according to the protocol of the manufacturer. The cells were incubated for 48 hours in the presence of peptides and siRNAs. Subsequently, the cells are lysed, and a luminescent signal proportional to the amount of ATP present is generated which, in turn, is proportional to the number of living cells present. Luminescence was analyzed in an InfiniteF200 luminescence reader.
Based on this observation, GAPDH mRNA levels were used as a general readout for toxicity: an average measurement of 100% GAPDH mRNA relative to the medium control was considered as non-toxic, values between 99% and 70% as moderate toxic, and values of less than 70% as toxic (cf. FIG. 3).
Similarly, peptides resulting in GAPDH mRNA values >70% were classified as “nontoxic”, whereas peptides that caused a reduction of GAPDH mRNA to lesser values were termed “toxic”.
Data set [3] concerns MCF7 cells. The data set is described as follows: FACS analysis of internalization of FITC-labeled peptides. The class given is cell-based, human. As to conditions: FITC-labeled peptide 1, 5, 10 μM; 3 hours at 37° C.; proteinase K treated. As for the experimental part:
For FACS analysis, MCF7 cells (ATCC number HTB-22) were detached by 15 min incubation in accutase (an enzyme solution having proteolytic and collagenolytic activities; commercially available from various suppliers). After washing in FACS buffer (PBS containing 5% FCS), the cells were seeded in a 96 well, rounded bottom multi-well plate (Cat. No. 3799, Corning Inc., Corning, N.Y. USA) in a final density of 3×10^5 cells/ml and used immediately. The cells were incubated in the respective presence of 1 μM, 5 μM and 10 μM FITC-labeled peptides in OptiMEM medium for 3 hours at 37° C. Afterwards, the cells were washed in FACS buffer and incubated in proteinase K (0.02 mg/ml) containing buffer for 30 minutes at 37° C. The cells were washed twice and analyzed with the FACSCanto II (BD Biosciences; San Jose, Calif., USA) using the FITC channel.
For determining the internalization behavior of the CPPs identified in the screening procedures FITC-labeled derivates of said peptides (at 1 μM, 5 μM, and 10 μM, respectively) were analyzed by means of FACS. The following peptides were used: NRTN as a transfecting peptide, WNT16 as a non-transfecting peptide, FALL as a toxic peptide and TAT as a reference (positive control) (cf. FIG. 12). MCF7 cells were incubated in the presence of the fluorescent peptide derivatives for 3 hours at 37° C. in OptiMEM. Subsequently, the cells were treated with proteinase K for 30 minutes at 37° C. to remove surface bound peptides, and thus to ensure the monitoring only of internalized peptides. The cells were then washed in PBS and analyzed by FACS.
In general terms: A flow cytometer gives signals particle by particle.

In another data set the test system is human Aha1 mRNA. The data set is described as follows: siRNA transfection screening (siAha1 vs siGL3 control, bDNA assay of Aha1/GAPDH mRNA). The class given is cell-based. As for the experimental part: For the quantification of cellular mRNA levels bDNA (branched DNA) assays were performed which enable the detection of individual mRNA levels. To this end, a defined number of the cells to be analyzed was seeded into 96-well plates and allowed to attach over night. On the next day, the cells were transfected with siRNA.
After further 24 hours, the mRNA species were quantified using the QuantiGene Plex 2.0 assay kit according to the manufacturers instructions (Affymetrix Inc., Santa Clara, Calif., USA). In brief, cell lysates were transferred to a capture plate in the presence of a gene-specific probe set and incubated at 53° C. over night. After washing, the wells were sequentially incubated at 53° C. with an amplifier agent and an alkaline phosphatase (AP)-linked label probe with a washing step in between. Subsequently, the luminescent AP substrate dioxitane was added and incubated for 30 min at 53° C. Luminescence was assayed using an InfiniteF200 luminescence reader (Tecan Austria GmbH, Groding, Austria).
In order to analyze the potential CPPs for their ability to transfect siRNA into mammalian cells an increasing peptide concentration (from 1 μM to 20 μM) was employed along with a constant siRNA concentration (100 nM). This range of peptide concentrations was used as it had been shown that positively charged peptides such as TAT are internalized into cells in ranges up to 10 μM and remain in intracellular membrane compartments without significant egress into the cytosol (Duchardt, F. et al. (2007) Traffic 8, 848-866). […] A concentration of 10 nM siRNA is in the saturation range as determined in control experiments using the DharmaFECT transfection reagent (Dharmacon, Inc., Lafayette, Colo., USA; data not shown).
The siRNA oligonucleotides employed were directed against human Aha1 mRNA (Panaretou, B. et al. (2002) Mol. Cell 10, 1307-1318) or against luciferase mRNA as a control.
Complexes of siRNA and the respective peptides were formed in OptiMEM medium and incubated for 15 minutes at room temperature. The cells were incubated in the presence of the complexes for three hours in OptiMEM. After washing, the cells were incubated for further 21 or 45 hours in normal growth medium. Thereafter, the levels of Aha1 mRNA and a reference mRNA (i.e. GAPDH mRNA) were measured by means of a bDNA assay. These assays were performed with cells that were transfected with siAHA1 and with a control siRNA (siGL3, luciferase), respectively.
As a measure for specific RNAi, the reduction of Aha1 mRNA levels relative to GAPDH mRNA levels was compared in siAHA1-transfected cells and siGL3-transfected cells. Specific siRNA mediated transfection causes a reduction in Aha1/GAPDH mRNA values in siAhA1-compared to siGL3-transfected cells. FIG. 3 depicts the screening readout of these assays: the Aha1/GAPDH mRNA values of non-transfected control cells were set to 100% (for each assay), and the Aha1/GAPDH mRNA values of siAha1- or siGL3-transfected cells were expressed relative to that. For this normalized data set, the differences between the respective Aha1/GAPDH mRNA levels of siAha1- and siGL3-transfected cells were determined. Specific peptides caused a significant reduction in siAha1 transfection without reducing siGL3 transfections, which results in positive difference values. The more pronounced these values are, the more specific RNAi is observed (cf. FIG. 3).

In the case of `CC[C@H](C)[C@H](NC(=O)[C@H](CCCNC(=N)N)NC(=O)[C@@H](NC(=O)CNC(=O)[C@H](CCCNC(=N)N)NC(=O)[C@H](CCCNC(=N)N)NC(=O)[C@H](CCCNC(=N)N)NC(=O)[C@H](CCC(N)=O)NC(=O)[C@H](CCCNC(=N)N)NC(=O)[C@H](CCCNC(=N)N)NC(=O)[C@H](CCCCN)NC(=O)[C@H](CCCCN)NC(=O)[C@H](CCCNC(=N)N)NC(=O)CNC(=O)[C@H](Cc1ccc(O)cc1)NC(=O)CCOCCOCCOCCNC(=O)[C@@H](N)CS)[C@@H](C)O)C(=O)N[C@H](C(=O)N[C@@H](Cc1ccc(O)cc1)C(=O)N[C@@H](CC(=O)O)C(=O)N[C@@H](CCCNC(=N)N)C(=O)N[C@@H](CCCCN)C(=O)N[C@@H](Cc1ccccc1)C(=O)N[C@@H](CC(C)C)C(=O)N[C@@H](CCSC)C(=O)N[C@@H](CCC(=O)O)C(=O)N[C@@H](CS)C(=O)N[C@@H](CCCNC(=N)N)C(=O)N[C@@H](CC(N)=O)C(=O)N[C@@H](CO)C(=O)N1CCC[C@H]1C(=O)N[C@H](C(=O)N[C@H](C(=O)O)[C@@H](C)O)C(C)C)[C@@H](C)CC` [TAT4E-BP1, reference compound], the “cell viability / cytotoxicity due to induction of apoptosis” value in data set [1] was “clear evidence for reduction in cell viability and cytotoxicity”.

In the case of `CC[C@H](C)[C@H](NC(=O)[C@H](CCCNC(=N)N)NC(=O)[C@@H](NC(=O)CNC(=O)[C@H](CCCNC(=N)N)NC(=O)[C@H](CCCNC(=N)N)NC(=O)[C@H](CCCNC(=N)N)NC(=O)[C@H](CCC(N)=O)NC(=O)[C@H](CCCNC(=N)N)NC(=O)[C@H](CCCNC(=N)N)NC(=O)[C@H](CCCCN)NC(=O)[C@H](CCCCN)NC(=O)[C@H](CCCNC(=N)N)NC(=O)CNC(=O)[C@H](Cc1ccc(O)cc1)NC(=O)CCOCCOCCOCCNC(=O)[C@@H](N)CS)[C@@H](C)O)C(=O)N[C@H](C(=O)NCC(=O)N[C@@H](CC(=O)O)C(=O)NCC(=O)N[C@@H](CCCCN)C(=O)N[C@@H](Cc1ccccc1)C(=O)NCC(=O)N[C@@H](CCSC)C(=O)N[C@@H](CCC(=O)O)C(=O)N[C@@H](CS)C(=O)N[C@@H](CCCNC(=N)N)C(=O)N[C@@H](CC(N)=O)C(=O)N[C@@H](CO)C(=O)N1CCC[C@H]1C(=O)N[C@H](C(=O)N[C@H](C(=O)O)[C@@H](C)O)C(C)C)[C@@H](C)CC` [TATinact4E-BP1, reference compound], in data set [1], the “cell viability / cytotoxicity due to induction of apoptosis” value is “completely inactive”.

As for “FALLGDFFRKSKEKIGKEFKRIVQRIKDFLRNLVPRTES (FALL39 Var.1 peptide sequence; listed as Homo sapiens) [peptide derived from the human protein cathelicidine]”, the “cell viability / growth inhibition / toxicity (CellTiter-Glo, GAPDH mRNA levels)” value with MCF7 cells [2] is reported as “significant toxicity”. For the same compound, in the data set on MCF7 cells [3], the “internalization into cells (FACS, FITC channel)” value is given as “strong accumulation”. Also, the “specific reduction of Aha1 mRNA at lower concentrations” value in the data set on human Aha1 mRNA (5 μM peptide) is “clear and specific reduction of Aha1 mRNA”. Moreover, the “specific Aha1 mRNA reduction (relative to GAPDH mRNA) where toxicity is pronounced” value in the data set on human Aha1 mRNA (10 μM or higher) is “only inconclusive evidence for a specific Aha1 mRNA reduction”. Also, in the data set on human Aha1 mRNA (NRTN: at lower non-toxic concentrations), the “transfection efficacy compared with TAT / control peptides” value is listed as “inferior transfection efficacy than TAT”.

“FSRSLHSLLVDL (C-terminal Nor1 peptide sequence; listed as Homo sapiens) [Nor/Nur, reference compound]”: the “cell viability / induction of apoptosis” value in data set [1] is “No reduction in cell viability or induction of apoptosis was observed”.

As to “GAAEAAARVYDLGLRRLRQRRRLRRERVRAGTRIIGDGKFGMECRNSPVT (inactive NRTN4E-BP1 peptide sequence) [NRTNinact4E-BP1]”, the “cell viability / induction of apoptosis” value in data set [1] is “inactive”.

With “GAAEAAARVYDLGLRRLRQRRRLRRERVRAGTRIIYDRKFLMECRNSPVT [NRTN4E-BP1]”, in data set [1], the “potency compared to TAT-fused counterpart” value was “significantly higher potency” and the “cell viability / induction of apoptosis” value is given as “remarked cytotoxicity”.

Regarding “GTRIIYDRKFLMECRNSPVT [4E-BP1, reference compound]”, the “cell viability / induction of apoptosis” value in data set [1] was “No reduction in cell viability or induction of apoptosis was observed”.

As for “PROK2: candidate peptide displaying the highest similarity with TAT (LTRKNNFGNGRQERRKRKRSKRKKEVPFFG; PROK2 peptide sequence; listed as Homo sapiens)”, in the data set on human Aha1 mRNA (MCF7 cells, 100 nM siRNA, peptide 1 μM to 20 μM), the “siRNA transfection activity (specific Aha1 mRNA reduction relative to GAPDH mRNA)” value is reported as “did not show detectable transfection activity”.
